Counter-ions that a name gives are not always drawn.
Legend:
[1] = target: T1, rat α1B+β1b+chicken α2δ Ca2+ channel (Rattus norvegicus, UniProt Q02294); experiment: whole-cell patch clamp screening for calcium channel blockers; assay type: cell-based; settings: 600 nM, HEK cells, n=3, FIG. 4
T1 construct: expressed in transfected cells; host or cells: HEK 293
Method: After an incubation period of 24 to 72 hrs, the culture medium was removed and replaced with an external recording solution containing (in mM) 5 BaCl, 129 CsCl, 1 MgCl2, 10 HEPES, 10 glucose, pH 7.4 with CsOH. Whole-cell patch clamp recordings were made with an Axopatch 200B amplifier (Axon Instruments, USA). Recording electrodes with typical resistances of 4–8 MΩ were backfilled with (in mM) 108 caesium-methansulfonate, 2 MgCl2, 10 HEPES, 11 EGTA, 2 ATP, pH 7.2 with CsOH. To create command potentials and acquire data, Clampex 8.2 software (Axon Instruments, USA) and a Digidata 1322A A/D converter interface (Axon Instrument, USA) were used. Currents were elicited at test potential of +20 mV (50 ms duration) from a holding potential of −80 mV. Leak and capacitance currents were subtracted on-line with a standard P/4 protocol. Evoked currents were filtered by a low-pass Bessel filter set at 1 kHz. Signals were acquired at 2.02 kHz and analyzed offline using pClamp 8.2 (Axon Instruments, USA) and Origin (OriginLab Corporation, USA) software. The effects of co-expressing the α2δ subunit of Example 1 with the rat α1B+β1b calcium channel subunits were tested by comparing average current density (Ipeak/cell capacitance) with and without α2δ.
To screen for calcium channel blockers, the whole-cell patch clamp recording technique used was as described in Example 2. […]

α2δ-2 = α2δ-2 (Homo sapiens, UniProt Q9NY47); settings: Marais et al. 2001; cited from earlier work
rat α1B+β1b Ca2+ channel = experiment: whole-cell patch clamp, average current density with and without α2δ in transfected HEK 293 cells; assay type: cell-based; settings: HEK 293, 6 cells, test potential +20 mV, holding −80 mV, mean±S.E.M.
Method: Human embryonic kidney cells, HEK 293 (ATCC# CRL 1573) were grown in standard DMEM medium supplemented with 2 mM glutamine and 10% fetal bovine serum and transfected by a standard calcium-phosphate-DNA co-precipitation method or by lipofection with the full-length chicken α2δ-1 calcium channel cDNA in the mammalian expression vector pBK-RSV (see Current protocols in Molecular Biology): alone or in combination with expression vectors encoding α1 and β subunits, and with vectors expressing green fluorescent protein (GFP).
After an incubation period of 24 to 72 hrs, the culture medium was removed and replaced with an external recording solution containing (in mM) 5 BaCl, 129 CsCl, 1 MgCl2, 10 HEPES, 10 glucose, pH 7.4 with CsOH. Whole-cell patch clamp recordings were made with an Axopatch 200B amplifier (Axon Instruments, USA). Recording electrodes with typical resistances of 4–8 MΩ were backfilled with (in mM) 108 caesium-methansulfonate, 2 MgCl2, 10 HEPES, 11 EGTA, 2 ATP, pH 7.2 with CsOH. To create command potentials and acquire data, Clampex 8.2 software (Axon Instruments, USA) and a Digidata 1322A A/D converter interface (Axon Instrument, USA) were used. […] Signals were acquired at 2.02 kHz and analyzed offline using pClamp 8.2 (Axon Instruments, USA) and Origin (OriginLab Corporation, USA) software. […]

T1 sequence (Q02294 whole entry): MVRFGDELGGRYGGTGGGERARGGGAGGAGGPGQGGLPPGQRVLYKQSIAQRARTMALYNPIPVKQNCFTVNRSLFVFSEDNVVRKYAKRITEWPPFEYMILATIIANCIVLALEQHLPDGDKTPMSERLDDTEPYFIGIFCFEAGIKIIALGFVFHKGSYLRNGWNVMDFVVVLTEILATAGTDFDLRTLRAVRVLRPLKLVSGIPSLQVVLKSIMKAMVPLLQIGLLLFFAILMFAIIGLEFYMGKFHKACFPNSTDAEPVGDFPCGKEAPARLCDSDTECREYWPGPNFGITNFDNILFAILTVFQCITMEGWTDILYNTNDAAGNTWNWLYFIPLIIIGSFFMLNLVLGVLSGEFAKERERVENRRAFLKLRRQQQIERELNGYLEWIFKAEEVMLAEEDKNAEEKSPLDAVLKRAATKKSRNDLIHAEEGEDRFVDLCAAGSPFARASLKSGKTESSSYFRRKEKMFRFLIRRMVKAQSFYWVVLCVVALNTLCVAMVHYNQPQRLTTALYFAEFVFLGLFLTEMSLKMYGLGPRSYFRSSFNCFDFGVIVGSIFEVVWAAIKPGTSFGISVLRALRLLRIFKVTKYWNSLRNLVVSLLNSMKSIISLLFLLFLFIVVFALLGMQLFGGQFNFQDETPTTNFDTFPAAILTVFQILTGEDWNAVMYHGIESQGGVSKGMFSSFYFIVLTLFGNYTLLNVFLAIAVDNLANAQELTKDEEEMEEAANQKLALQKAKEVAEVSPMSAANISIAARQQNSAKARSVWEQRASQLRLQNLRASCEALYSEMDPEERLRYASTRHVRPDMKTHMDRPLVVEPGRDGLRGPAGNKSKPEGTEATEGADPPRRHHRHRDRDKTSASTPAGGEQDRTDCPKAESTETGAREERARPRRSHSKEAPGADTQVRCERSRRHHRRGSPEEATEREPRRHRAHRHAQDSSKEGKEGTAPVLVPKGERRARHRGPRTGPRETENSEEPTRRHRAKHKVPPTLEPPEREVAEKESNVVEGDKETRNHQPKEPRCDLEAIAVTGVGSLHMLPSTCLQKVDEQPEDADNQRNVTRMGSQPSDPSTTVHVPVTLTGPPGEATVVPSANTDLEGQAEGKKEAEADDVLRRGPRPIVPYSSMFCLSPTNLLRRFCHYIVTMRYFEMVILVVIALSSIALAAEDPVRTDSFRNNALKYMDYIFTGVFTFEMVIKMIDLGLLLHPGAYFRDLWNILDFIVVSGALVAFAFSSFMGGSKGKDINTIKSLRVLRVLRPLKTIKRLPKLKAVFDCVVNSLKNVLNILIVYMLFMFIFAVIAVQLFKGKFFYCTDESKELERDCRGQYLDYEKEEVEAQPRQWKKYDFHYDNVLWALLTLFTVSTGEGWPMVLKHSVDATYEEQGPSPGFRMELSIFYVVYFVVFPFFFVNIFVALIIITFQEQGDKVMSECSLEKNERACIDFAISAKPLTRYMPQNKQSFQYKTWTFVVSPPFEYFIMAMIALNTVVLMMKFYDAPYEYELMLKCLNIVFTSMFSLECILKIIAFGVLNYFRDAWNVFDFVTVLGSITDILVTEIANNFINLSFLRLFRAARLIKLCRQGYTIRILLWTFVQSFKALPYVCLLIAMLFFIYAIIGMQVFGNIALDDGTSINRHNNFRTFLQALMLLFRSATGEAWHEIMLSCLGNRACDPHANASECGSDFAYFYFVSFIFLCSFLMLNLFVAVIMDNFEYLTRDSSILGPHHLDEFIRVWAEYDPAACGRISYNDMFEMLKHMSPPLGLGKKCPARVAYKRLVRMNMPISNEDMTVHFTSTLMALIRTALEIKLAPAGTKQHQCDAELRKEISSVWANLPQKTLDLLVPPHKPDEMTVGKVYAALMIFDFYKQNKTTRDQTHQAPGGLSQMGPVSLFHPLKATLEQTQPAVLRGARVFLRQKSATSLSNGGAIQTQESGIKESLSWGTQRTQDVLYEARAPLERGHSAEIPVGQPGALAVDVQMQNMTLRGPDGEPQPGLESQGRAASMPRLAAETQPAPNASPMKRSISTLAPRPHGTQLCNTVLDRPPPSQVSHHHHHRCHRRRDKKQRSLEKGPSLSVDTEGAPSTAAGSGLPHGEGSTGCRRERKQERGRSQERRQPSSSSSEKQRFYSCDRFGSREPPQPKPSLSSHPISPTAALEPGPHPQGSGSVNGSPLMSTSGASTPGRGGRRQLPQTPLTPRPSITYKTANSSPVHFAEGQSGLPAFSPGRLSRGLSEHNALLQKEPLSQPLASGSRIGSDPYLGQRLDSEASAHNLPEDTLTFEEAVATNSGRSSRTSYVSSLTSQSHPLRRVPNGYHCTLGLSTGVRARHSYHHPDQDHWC
α2δ-2, sequence (Q9NY47 19-1150): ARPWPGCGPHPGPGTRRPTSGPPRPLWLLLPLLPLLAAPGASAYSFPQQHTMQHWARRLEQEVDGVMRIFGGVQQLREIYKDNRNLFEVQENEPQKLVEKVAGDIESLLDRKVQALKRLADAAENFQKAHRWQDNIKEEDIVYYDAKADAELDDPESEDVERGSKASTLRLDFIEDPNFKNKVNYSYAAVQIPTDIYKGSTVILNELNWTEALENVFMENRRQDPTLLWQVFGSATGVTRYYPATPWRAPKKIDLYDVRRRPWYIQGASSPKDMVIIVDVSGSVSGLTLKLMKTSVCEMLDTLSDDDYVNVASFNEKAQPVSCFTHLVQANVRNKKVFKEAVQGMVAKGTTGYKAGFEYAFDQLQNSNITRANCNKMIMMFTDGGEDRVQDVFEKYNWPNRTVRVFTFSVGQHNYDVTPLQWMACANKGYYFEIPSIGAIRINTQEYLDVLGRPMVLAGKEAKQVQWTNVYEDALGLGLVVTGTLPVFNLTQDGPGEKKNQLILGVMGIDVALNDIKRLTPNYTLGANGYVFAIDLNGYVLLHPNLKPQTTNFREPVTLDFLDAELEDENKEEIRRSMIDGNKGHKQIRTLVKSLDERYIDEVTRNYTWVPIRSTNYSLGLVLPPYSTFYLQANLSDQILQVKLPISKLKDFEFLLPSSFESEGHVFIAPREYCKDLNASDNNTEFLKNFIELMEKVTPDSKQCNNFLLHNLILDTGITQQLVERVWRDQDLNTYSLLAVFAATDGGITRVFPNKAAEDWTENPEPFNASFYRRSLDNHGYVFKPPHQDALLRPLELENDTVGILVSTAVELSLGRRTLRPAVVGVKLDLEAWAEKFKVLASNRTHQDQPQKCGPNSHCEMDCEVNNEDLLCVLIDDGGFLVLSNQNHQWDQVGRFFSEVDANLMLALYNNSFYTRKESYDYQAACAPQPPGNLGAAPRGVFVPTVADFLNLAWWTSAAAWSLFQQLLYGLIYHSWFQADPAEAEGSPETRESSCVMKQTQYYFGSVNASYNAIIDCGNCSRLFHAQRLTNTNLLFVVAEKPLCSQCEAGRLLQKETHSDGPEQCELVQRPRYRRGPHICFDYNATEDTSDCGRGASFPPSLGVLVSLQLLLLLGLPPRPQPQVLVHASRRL

Which “inhibition of Ca2+ channel current (average current density)” value [1] does the source give for `O=C(CC(c1ccccc1)c1ccccc1)N1CCN(C(c2ccccc2)c2ccccc2)CC1` [NMED 160 (HCl)] here?
Its value is “inhibition”.

With `NCC1(CC(=O)O)CCCCC1` [Gabapentin] as the molecule, how does the “binding to α2δ-2” value (α2δ-2) read?
The value was “bind”.

B1: chicken α2δ subunit: α2δ-1 calcium channel subunit of White Leghorn chicken, SEQ ID NO:2, 1,087 amino acids (protein, listed as Gallus domesticus)
chain: MAAGWLLVFSLTLFQSLVMNHSSEGPFPSPTTIKSWVDKMQEDLITLARTASGVEQLAAIYLKNKDLYTVEANNPRQLVEIAARDIEKLLSNRSKALVRLAKEAEKYQASHQWRDEFGNNDIIYYNAKDDQNDPEKNDTESGSQRIRPVFEEDPVFRRQTSYQHAAVHIPTDIYEGSTIVLNELNWTAALDDVFKRNREEDPTLLWQVFGSATGLARYYPASPWVDNSRTPNKIDLYDVRRRPWYIQGAASPKDMLILVDASGSVSGLTLKLIRTSVIEMLETLSDDDFVNVVSFNNNAQNVSCFNHLVQANVRNKKKLKEAVDKISAKGITDYKKGFSYAFEQLLNHSVSRANCNKIIMLFTDGGEERAQEIFHKYNEDKKVRVFTFSVGQHNYDKGPIQWMACENKGYYYEIPSIGAIRINTQEYLDVLGRPMVLAGEKAKQVQWTNVYLDALELGLVITGTLPVFNLTKEQNGKINQLILGVMGVDVSLEDIKKLTPRFTLCPNGYYFAIDPNGYVLLHPNLQPKNPKSQEPVTLDFLDAELENDIKVEIRKKMIDGESGEKTFETLVKSQDERYIDKGNRTYTWTAVNGTDYSLALVLPSYSFYYIKAKIEEPITQARLEIKKDSETLKIDHFDEAGYTFIAPREYCTDVKKSENNTEFLLNFNEFIDRNTPSSPSCNTDMVIRVLLDAGFTNELAQNYWSKLYLDGVVAQFVVTDGGITRVFPKRAGEDWLENAETYEVSFYKRSLDNDNYIFTAPYYNKSGANSYESGIMVSKAVEITINGKLLKPAVVGIKIDAMKWMENFTTTTIKSLCNSEICGCEKNSMHVDCVILDDGGFLLMSNRDEYTHQIGRFFGEIDPGLMRNLINMSLYAFNKSYDYQSVCDPEEEPKQGAGLRSAYVPTIADILQLGWWASAAAWSILQQLFLSLTFPRFLEAADMEDDDFSTALPKTSCITEQTQYFFENDDKSFIGIVDCINCSRLYHAEKISNTNLVFIISDSQLLCRSCDPKPLMQAEKPDEGPNPCEMVKQPRYRKGPDVCFDEAKQEDSADCGGASGLSPSLWSMVGIQLVLLWLLSGSRHYQL
With B1 as the molecule, how does the “mean current density when coexpressed with chicken α2δ subunit” value (rat α1B+β1b Ca2+ channel) read?
Its value is −74.5±14.0 pA/pF.

From US7195893B2, “Nucleic acids encoding α2δ calcium channel subunits and methods for making and using them” (Neuromed Pharmaceuticals Ltd., priority 2003, dated 2007)
